Assay results: the kinase profiling compilation of Christmann-Franck et al. (2016)

Tests used:
Assay in all cases: radiometric filter-binding kinase assay, Kinase HotSpot
Conditions in all cases: compound 0.5 µM; ATP 10 µM
ADRBK2 (human) = ADRBK2 (human) (UniProt P35626)
BTK (human) = BTK (human) (UniProt Q06187)
CDK4 CCND3 (human) = CDK4 CCND3 (human) (UniProt P30281+P11802)
CHEK1 (human) = CHEK1 (human) (UniProt O14757)
FGFR4 (human) = FGFR4 (human) (UniProt P22455)
GRK4 (human) = GRK4 (human) (UniProt P32298)
GRK7 (human) = GRK7 (human) (UniProt Q8WTQ7)
HCK (human) = HCK (human) (UniProt P08631)
INSR (human) = INSR (human) (UniProt P06213)
Chain of INSR (human) (P06213 whole entry, looked up): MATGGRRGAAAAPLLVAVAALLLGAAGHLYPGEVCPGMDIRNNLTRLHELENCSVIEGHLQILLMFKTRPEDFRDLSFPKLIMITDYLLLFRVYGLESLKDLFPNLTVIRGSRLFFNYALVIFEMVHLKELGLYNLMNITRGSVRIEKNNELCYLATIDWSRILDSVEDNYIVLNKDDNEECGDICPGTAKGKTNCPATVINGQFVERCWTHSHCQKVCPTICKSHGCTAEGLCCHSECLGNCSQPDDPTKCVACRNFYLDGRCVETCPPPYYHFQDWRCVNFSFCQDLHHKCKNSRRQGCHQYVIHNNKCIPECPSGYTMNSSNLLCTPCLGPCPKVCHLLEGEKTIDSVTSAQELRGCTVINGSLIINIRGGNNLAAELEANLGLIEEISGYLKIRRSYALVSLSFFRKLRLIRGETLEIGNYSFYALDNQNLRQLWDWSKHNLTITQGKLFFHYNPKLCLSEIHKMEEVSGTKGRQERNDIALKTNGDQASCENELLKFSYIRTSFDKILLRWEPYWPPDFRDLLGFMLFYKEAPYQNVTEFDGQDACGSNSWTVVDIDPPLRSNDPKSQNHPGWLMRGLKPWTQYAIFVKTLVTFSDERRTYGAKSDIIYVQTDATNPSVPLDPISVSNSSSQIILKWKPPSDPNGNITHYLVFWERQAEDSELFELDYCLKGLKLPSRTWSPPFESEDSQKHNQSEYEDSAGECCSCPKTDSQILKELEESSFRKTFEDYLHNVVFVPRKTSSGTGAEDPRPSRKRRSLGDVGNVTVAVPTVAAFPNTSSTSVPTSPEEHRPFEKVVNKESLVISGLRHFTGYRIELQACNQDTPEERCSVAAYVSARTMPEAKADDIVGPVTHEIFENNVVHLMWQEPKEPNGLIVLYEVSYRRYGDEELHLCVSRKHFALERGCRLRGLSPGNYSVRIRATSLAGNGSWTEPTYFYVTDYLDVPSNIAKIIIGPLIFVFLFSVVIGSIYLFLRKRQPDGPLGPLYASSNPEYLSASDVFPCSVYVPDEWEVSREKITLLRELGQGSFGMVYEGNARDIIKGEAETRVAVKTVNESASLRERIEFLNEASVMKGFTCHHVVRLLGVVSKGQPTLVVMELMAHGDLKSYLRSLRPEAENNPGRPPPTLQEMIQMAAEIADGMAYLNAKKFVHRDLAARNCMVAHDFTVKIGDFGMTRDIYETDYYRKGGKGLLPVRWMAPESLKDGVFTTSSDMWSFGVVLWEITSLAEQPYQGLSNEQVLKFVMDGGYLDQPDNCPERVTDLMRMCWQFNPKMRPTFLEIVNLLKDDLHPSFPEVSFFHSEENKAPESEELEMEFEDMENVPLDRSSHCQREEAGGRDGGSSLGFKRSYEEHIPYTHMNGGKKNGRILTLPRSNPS

IRAK4 (human) = IRAK4 (human) (UniProt Q9NWZ3)
ITK (human) = ITK (human) (UniProt Q08881)
MAP2K1 (human) = MAP2K1 (human) (UniProt Q02750)
Chain of MAP2K1 (human) (Q02750 whole entry, looked up): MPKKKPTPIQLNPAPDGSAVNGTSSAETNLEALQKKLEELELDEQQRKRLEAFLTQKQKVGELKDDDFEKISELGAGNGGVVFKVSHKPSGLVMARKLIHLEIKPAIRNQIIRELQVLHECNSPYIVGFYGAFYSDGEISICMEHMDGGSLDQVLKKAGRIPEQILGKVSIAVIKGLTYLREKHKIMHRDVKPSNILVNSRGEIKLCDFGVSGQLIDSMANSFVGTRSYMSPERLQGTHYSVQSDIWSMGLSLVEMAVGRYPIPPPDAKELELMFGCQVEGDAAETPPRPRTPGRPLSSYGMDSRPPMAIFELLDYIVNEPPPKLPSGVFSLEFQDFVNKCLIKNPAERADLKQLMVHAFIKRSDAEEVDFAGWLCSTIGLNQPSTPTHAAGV

MAP3K5 (human) = MAP3K5 (human) (UniProt Q99683)
MAP3K8 (human) = MAP3K8 (human) (UniProt P41279)
MAPK10 (human) = MAPK10 (human) (UniProt P53779)
MAPKAPK3 (human) = MAPKAPK3 (human) (UniProt Q16644)
Chain of MAPKAPK3 (human) (Q16644 whole entry, looked up): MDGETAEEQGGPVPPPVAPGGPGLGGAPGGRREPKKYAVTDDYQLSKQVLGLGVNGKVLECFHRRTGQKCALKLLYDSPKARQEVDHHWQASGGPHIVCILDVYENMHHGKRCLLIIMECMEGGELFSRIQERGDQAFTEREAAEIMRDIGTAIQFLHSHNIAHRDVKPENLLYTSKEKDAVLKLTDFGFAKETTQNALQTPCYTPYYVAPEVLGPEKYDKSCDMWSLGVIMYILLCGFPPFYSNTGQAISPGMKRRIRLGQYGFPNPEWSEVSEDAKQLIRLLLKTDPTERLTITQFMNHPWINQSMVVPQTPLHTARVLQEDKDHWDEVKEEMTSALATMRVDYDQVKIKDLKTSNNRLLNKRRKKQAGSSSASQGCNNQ

MARK4 (human) = MARK4 (human) (UniProt Q96L34)
NEK11 (human) = NEK11 (human) (UniProt Q8NG66)
NEK2 (human) = NEK2 (human) (UniProt P51955)
NEK3 (human) = NEK3 (human) (UniProt P51956)
NEK6 (human) = NEK6 (human) (UniProt Q9HC98)
OXSR1 (human) = OXSR1 (human) (UniProt O95747)
PASK (human) = PASK (human) (UniProt Q96RG2)
PBK (human) = PBK (human) (UniProt Q96KB5)
Chain of PBK (human) (Q96KB5 whole entry, looked up): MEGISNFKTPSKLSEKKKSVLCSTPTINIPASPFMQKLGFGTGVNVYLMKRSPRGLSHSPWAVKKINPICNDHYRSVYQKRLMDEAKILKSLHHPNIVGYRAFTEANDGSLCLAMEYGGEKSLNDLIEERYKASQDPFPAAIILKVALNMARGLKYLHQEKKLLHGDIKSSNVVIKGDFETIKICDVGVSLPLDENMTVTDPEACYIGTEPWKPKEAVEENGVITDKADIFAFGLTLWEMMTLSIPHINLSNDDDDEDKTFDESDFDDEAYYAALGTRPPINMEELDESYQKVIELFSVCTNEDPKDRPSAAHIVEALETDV

PIM2 (human) = PIM2 (human) (UniProt Q9P1W9)
PIM3 (human) = PIM3 (human) (UniProt Q86V86)
PLK1 (human) = PLK1 (human) (UniProt P53350)
PRKCA (human) = PRKCA (human) (UniProt P17252)
PRKD1 (human) = PRKD1 (human) (UniProt Q15139)
RPS6KA1 KD1 KD2 (human) = RPS6KA1 KD1 KD2 (human) (UniProt Q15418)
RPS6KB1 (human) = RPS6KB1 (human) (UniProt P23443)
SIK2 (human) = SIK2 (human) (UniProt Q9H0K1)
TAOK1 (human) = TAOK1 (human) (UniProt Q7L7X3)
TGFBR1 (human) = TGFBR1 (human) (UniProt P36897)
Chain of TGFBR1 (human) (P36897 whole entry, looked up): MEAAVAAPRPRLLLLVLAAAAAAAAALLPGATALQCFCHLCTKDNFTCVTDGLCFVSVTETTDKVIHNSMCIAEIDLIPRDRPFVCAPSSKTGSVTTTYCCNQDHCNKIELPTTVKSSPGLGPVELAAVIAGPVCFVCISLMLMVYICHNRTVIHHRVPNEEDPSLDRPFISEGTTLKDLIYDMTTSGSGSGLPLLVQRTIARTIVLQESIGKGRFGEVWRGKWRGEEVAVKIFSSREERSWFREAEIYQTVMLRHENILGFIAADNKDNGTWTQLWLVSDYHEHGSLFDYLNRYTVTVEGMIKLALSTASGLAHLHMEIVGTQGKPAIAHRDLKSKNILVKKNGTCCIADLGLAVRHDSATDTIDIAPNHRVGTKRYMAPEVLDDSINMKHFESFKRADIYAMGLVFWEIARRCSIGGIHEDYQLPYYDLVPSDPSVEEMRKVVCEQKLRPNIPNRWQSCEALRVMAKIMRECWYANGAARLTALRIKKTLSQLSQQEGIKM

TGFBR2 (human) = TGFBR2 (human) (UniProt P37173)
Chain of TGFBR2 (human) (P37173 whole entry, looked up): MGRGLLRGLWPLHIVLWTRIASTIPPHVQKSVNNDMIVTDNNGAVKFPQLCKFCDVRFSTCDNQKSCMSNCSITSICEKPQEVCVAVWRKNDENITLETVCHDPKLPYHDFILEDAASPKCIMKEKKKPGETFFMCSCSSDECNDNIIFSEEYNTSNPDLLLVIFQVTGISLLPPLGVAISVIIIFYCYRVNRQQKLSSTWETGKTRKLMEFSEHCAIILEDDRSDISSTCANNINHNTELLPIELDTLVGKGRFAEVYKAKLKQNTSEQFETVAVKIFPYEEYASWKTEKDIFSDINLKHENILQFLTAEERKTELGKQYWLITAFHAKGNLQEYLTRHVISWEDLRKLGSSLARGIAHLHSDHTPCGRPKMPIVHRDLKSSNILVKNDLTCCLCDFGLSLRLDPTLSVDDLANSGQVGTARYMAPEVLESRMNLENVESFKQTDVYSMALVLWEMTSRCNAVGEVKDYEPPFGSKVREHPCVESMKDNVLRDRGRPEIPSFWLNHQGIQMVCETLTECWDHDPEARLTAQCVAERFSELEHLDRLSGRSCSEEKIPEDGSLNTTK

TNK2 (human) = TNK2 (human) (UniProt Q07912)
TXK (human) = TXK (human) (UniProt P42681)
[1] = target: TYK2 JH1 catalytic (human) (UniProt P29597)
TYRO3 (human) = TYRO3 (human) (UniProt Q06418)
Chain of TYRO3 (human) (Q06418 whole entry, looked up): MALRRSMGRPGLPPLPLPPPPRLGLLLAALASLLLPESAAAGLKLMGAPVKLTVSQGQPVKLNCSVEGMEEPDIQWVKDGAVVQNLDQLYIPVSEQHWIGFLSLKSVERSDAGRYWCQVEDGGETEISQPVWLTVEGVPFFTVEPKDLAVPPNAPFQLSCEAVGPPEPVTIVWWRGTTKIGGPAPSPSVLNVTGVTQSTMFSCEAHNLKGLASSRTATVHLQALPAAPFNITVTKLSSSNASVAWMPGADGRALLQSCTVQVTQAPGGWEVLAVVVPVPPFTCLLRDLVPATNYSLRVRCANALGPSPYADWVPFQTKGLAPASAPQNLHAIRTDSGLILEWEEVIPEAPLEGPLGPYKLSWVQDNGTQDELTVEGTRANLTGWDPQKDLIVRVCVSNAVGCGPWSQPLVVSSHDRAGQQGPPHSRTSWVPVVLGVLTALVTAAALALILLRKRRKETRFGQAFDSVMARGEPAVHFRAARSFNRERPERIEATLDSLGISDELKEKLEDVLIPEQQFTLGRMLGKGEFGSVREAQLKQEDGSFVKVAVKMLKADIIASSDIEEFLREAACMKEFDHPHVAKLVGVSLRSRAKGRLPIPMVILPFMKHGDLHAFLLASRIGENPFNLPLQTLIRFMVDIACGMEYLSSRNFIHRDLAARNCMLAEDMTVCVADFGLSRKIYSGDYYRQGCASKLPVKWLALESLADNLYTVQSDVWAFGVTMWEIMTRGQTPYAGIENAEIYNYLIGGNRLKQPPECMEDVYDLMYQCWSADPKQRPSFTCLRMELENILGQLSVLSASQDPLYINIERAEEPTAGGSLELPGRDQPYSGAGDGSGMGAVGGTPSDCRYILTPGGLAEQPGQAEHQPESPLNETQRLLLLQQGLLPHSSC

YES1 (human) = YES1 (human) (UniProt P07947)

| SMILES | residual activity (ADRBK2 (human)) [%] | residual activity (BTK (human)) [%] | residual activity (CDK4 CCND3 (human)) [%] | residual activity (CHEK1 (human)) [%] | residual activity (FGFR4 (human)) [%] | residual activity (GRK4 (human)) [%] | residual activity (GRK7 (human)) [%] | residual activity (HCK (human)) [%] | residual activity (INSR (human)) [%] | residual activity (IRAK4 (human)) [%] | residual activity (ITK (human)) [%] | residual activity (MAP2K1 (human)) [%] | residual activity (MAP3K5 (human)) [%] | residual activity (MAP3K8 (human)) [%] | residual activity (MAPK10 (human)) [%] | residual activity (MAPKAPK3 (human)) [%] | residual activity (MARK4 (human)) [%] | residual activity (NEK11 (human)) [%] | residual activity (NEK2 (human)) [%] | residual activity (NEK3 (human)) [%] | other results |
| --- | --- | --- | --- | --- | --- | --- | --- | --- | --- | --- | --- | --- | --- | --- | --- | --- | --- | --- | --- | --- | --- |
| CC[n+]1c(/C=C/N(C)c2ccccc2)n(-c2ccccc2)c2ccc(-c3nc4ccccc4s3)cc21 | 97.4 | 91.6 | 102 | 103 | 84.1 | 103 | 100 | 104 | 94 | 173 | 92.7 | 93.5 | 100 | 92 | 92.7 | 100 | 110 | 91.6 | 100 | 102 | residual activity (NEK6 (human)): 96.1%; residual activity (OXSR1 (human)): 94.2%; residual activity (PASK (human)): 102%; residual activity (PBK (human)): 107%; residual activity (PIM2 (human)): 117%; residual activity (PIM3 (human)): 98.8%; residual activity (PLK1 (human)): 110%; residual activity (PRKCA (human)): 77.7%; residual activity (PRKD1 (human)): 91.9%; residual activity (RPS6KA1 KD1 KD2 (human)): 104%; residual activity (RPS6KB1 (human)): 96.8%; residual activity (SIK2 (human)): 112%; residual activity (TAOK1 (human)): 99.4%; residual activity (TGFBR1 (human)): 102%; residual activity (TGFBR2 (human)): 95.1%; residual activity (TNK2 (human)): 98%; residual activity (TXK (human)): 107%; residual activity [1]: 88.5%; residual activity (TYRO3 (human)): 103%; residual activity (YES1 (human)): 94.9% |
| Cc1ccc(NC2=CC(=O)c3sc(C)nc3C2=O)cc1 | 84.5 | 99.2 | 93.7 | 91.1 | 86.7 | 93.1 | 101 | 94.4 | 92.6 | 124 | 98.6 | 96.1 | 119 | 90.2 | 105 | 76.5 | 102 | 98.3 | 96.4 | 88.2 | residual activity (NEK6 (human)): 106%; residual activity (OXSR1 (human)): 86.6%; residual activity (PASK (human)): 89.4%; residual activity (PBK (human)): 85.8%; residual activity (PIM2 (human)): 103%; residual activity (PIM3 (human)): 108%; residual activity (PLK1 (human)): 86.8%; residual activity (PRKCA (human)): 100%; residual activity (PRKD1 (human)): 102%; residual activity (RPS6KA1 KD1 KD2 (human)): 102%; residual activity (RPS6KB1 (human)): 97.2%; residual activity (SIK2 (human)): 118%; residual activity (TAOK1 (human)): 99.8%; residual activity (TGFBR1 (human)): 94.8%; residual activity (TGFBR2 (human)): 77.6%; residual activity (TNK2 (human)): 94.3%; residual activity (TXK (human)): 98.8%; residual activity [1]: 109%; residual activity (TYRO3 (human)): 95.3%; residual activity (YES1 (human)): 86.7% |
| CCN(CC)C(=O)c1ccc(Nc2nc(OCC3CCCCC3)c3nc[nH]c3n2)cc1 | 92.7 | 37.1 | 59.2 | 66.1 | 94.4 | 93 | 103 | 63.1 | 92.8 | 92.4 | 57.3 | 94.1 | 96.9 | 101 | 108 | 103 | 93.8 | 132 | 91.4 | 69.4 | residual activity (NEK6 (human)): 101%; residual activity (OXSR1 (human)): 99%; residual activity (PASK (human)): 103%; residual activity (PBK (human)): 116%; residual activity (PIM2 (human)): 105%; residual activity (PIM3 (human)): 109%; residual activity (PLK1 (human)): 91.4%; residual activity (PRKCA (human)): 82.5%; residual activity (PRKD1 (human)): 62.6%; residual activity (RPS6KA1 KD1 KD2 (human)): 57.1%; residual activity (RPS6KB1 (human)): 89.5%; residual activity (SIK2 (human)): 75.3%; residual activity (TAOK1 (human)): 57.9%; residual activity (TGFBR1 (human)): 100%; residual activity (TGFBR2 (human)): 75.4%; residual activity (TNK2 (human)): 21.4%; residual activity (TXK (human)): 46%; residual activity [1]: 4.96%; residual activity (TYRO3 (human)): 90.4%; residual activity (YES1 (human)): 15.4% |
| Nc1cccc(-c2cc3c(Oc4cccc(O)c4)ncnc3[nH]2)c1 | 101 | 33.6 | 92.8 | 66.2 | 45.1 | 94.7 | 102 | 6.65 | 93.7 | 88.2 | 102 | 76.3 | 94.9 | 99.6 | 89.4 | 97.6 | 68.8 | 89.6 | 98 | 57.5 | residual activity (NEK6 (human)): 90.2%; residual activity (OXSR1 (human)): 119%; residual activity (PASK (human)): 96.2%; residual activity (PBK (human)): 93.9%; residual activity (PIM2 (human)): 108%; residual activity (PIM3 (human)): 129%; residual activity (PLK1 (human)): 104%; residual activity (PRKCA (human)): 95.6%; residual activity (PRKD1 (human)): 94.4%; residual activity (RPS6KA1 KD1 KD2 (human)): 105%; residual activity (RPS6KB1 (human)): 95.3%; residual activity (SIK2 (human)): 69.4%; residual activity (TAOK1 (human)): 142%; residual activity (TGFBR1 (human)): 101%; residual activity (TGFBR2 (human)): 42.6%; residual activity (TNK2 (human)): 19.6%; residual activity (TXK (human)): 24.5%; residual activity [1]: 36.9%; residual activity (TYRO3 (human)): 52.1%; residual activity (YES1 (human)): 6.05% |
| O=C(Nc1cccc(Nc2nccc(Nc3cccc(C(F)(F)F)c3)n2)c1)C1CC1 | 93.1 | 83.7 | 103 | 96.6 | 101 | 96.9 | 101 | 102 | 89.8 | 146 | 101 | 98 | 111 | 111 | 99 | 93 | 108 | 102 | 95.3 | 95.8 | residual activity (NEK6 (human)): 103%; residual activity (OXSR1 (human)): 78.9%; residual activity (PASK (human)): 106%; residual activity (PBK (human)): 101%; residual activity (PIM2 (human)): 112%; residual activity (PIM3 (human)): 106%; residual activity (PLK1 (human)): 91.7%; residual activity (PRKCA (human)): 71.9%; residual activity (PRKD1 (human)): 94.1%; residual activity (RPS6KA1 KD1 KD2 (human)): 92.8%; residual activity (RPS6KB1 (human)): 98%; residual activity (SIK2 (human)): 103%; residual activity (TAOK1 (human)): 97.9%; residual activity (TGFBR1 (human)): 102%; residual activity (TGFBR2 (human)): 91.6%; residual activity (TNK2 (human)): 66.5%; residual activity (TXK (human)): 90.2%; residual activity [1]: 42.5%; residual activity (TYRO3 (human)): 93.8%; residual activity (YES1 (human)): 78.9% |
